# Assay results reported in publication PMC10480042 (ACS applied materials & interfaces, 2023).
# No end group written: not given here.
# How the values were obtained:
# Aβ42 [1] = molecular target: T1, Aβ42 (Homo sapiens, UniProt P05067); experiment: CD spectroscopy; format: biochemical; conditions: co-incubation with Spike1058, dose-dependent, 48 h, 37 °C
# Aβ42 [2] = molecular target: T1, Aβ42; experiment: biochemical; format: binding
# zebrafish embryos [3] = conditions: in vivo
# Aβ42 [4] = molecular target: T1, Aβ42; experiment: SEC-HPLC-UV of Aβ42 and Spike1058 co-aggregation; format: biochemical; conditions: molar ratio 1:2, 4 h, 37 °C, UV 220 nm, PBS pH 5.6
# Aβ42 [5] = molecular target: T1, Aβ42; format: biochemical
# zebrafish embryos [6] = conditions: in vivo; remark: listed apart in the source
# T1 sequence (P05067 672-713): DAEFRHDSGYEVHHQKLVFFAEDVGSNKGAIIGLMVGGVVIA
sequence,measurement,setting,value
HGVVFLHVTYV [Spike1058],increase of β-sheet content of Aβ by co-incubation (CD),Aβ42 [1],16-35%
same,Kd,Aβ42 [2],82.6 nM
same,"generation of biotic ROS, surpassing levels with Aβ or Spike1058 alone",zebrafish embryos [3],significant increase
same,decrease of amount of Spike1058 in mixed Aβ-Spike1058 sample,Aβ42 [4],39.54%
same,cell mortality,SH-SY5Y cells,elevated in a dose-dependent manner
same,cell mortality vs Aβ control,SH-SY5Y cells,less deleterious than Aβ control
same,number of viable SH-SY5Y cells at increasing Spike:Aβ molar ratios,SH-SY5Y cells,gradual decline in number
same,"impact on cell viability, less than Aβ control",SH-SY5Y cells; 25 µM,11%
same,viable SH-SY5Y cells compared with Aβ control group,SH-SY5Y cells; 24 h,22%
same,increase of Aβ's β-sheet content by co-incubation,Aβ42 [5],7-33%
same,hatching interference and mortality compared to control group,zebrafish embryos [6],pronounced hatching interference and mortality
same,hatching rate in comparison to Aβ or Spike1058 alone,zebrafish embryos [6],significantly decreased
same,influence on hatching and mortality rate relative to Aβ,zebrafish embryos [6],more substantial influence than Aβ
same,survival rate in comparison to Aβ or Spike1058 alone,zebrafish embryos [6],significantly decreased
